From patent publication US6734184B1, “Arylpiperazines and their use as metalloproteinase inhibiting agents (MMP)” (AstraZeneca AB, priority 1998, dated 2004) come the findings set out here.

What is called melting point is the temperature, or range, at which the solid turns liquid.

`O=CN(O)C(COCc1ccccc1)CS(=O)(=O)N1CCN(c2cc(Cl)ncn2)CC1` (stereo not drawn) [N-[2-(benyloxy)-1-({[4(6-chloropyrimidin-4-yl)piperazino]sulphonyl}methyl)ethyl]-N-hydroxyformamide] yielded a melting point of 118 to 120 °C.
Then `O=CN(O)C(CCc1ccccc1)CS(=O)(=O)N1CCN(c2cc(Cl)ncn2)CC1` (stereo not drawn) [N-[1-({[4-(6-chloropyrimidin-4-yl)piperazino]sulphonyl}methyl)-3-phenylpropyl]-N-hydroxyformamide], with 155 to 157 °C.
To `O=CN(O)C(CCc1cccnc1)CS(=O)(=O)N1CCC(Oc2ccc(Cl)cn2)CC1` (stereo not drawn) [Example 14, N-{1-[({4-[(5-Chloropyridin-2-yl)oxy]piperidino}sulfonyl)methyl]-3-pyridin-3-ylpropyl}-N-hydroxyformamide] belongs 130 to 140 °C.
